Consider five molecules from US20250290915A1, “METHOD FOR PREDICTING RESPONSIVENESS TO THERAPY” (CANCERTAIN LIMITED, priority 2022, published 2025).

Common to all, as to format: cell-based, human
Experiment [1] concerns Circulating Tumour Cells (CTCs) from a patient with renal cancer. Nature of the experiment: Drug response score assay on CTCs (with CD45+ cells for immunotherapy) from blood, Example 7. As to conditions: for Drug response score, conc. 1: conc. 1: Pembr 20 μg/ml (CTCs + CD45+ cells), Docetax 0.02 μg/ml, Gemcit 2 μg/ml, Topo 5 μg/ml, Etop 1 μg/ml, Eribul 5 μg/ml (CTCs); for Drug response score, conc. 1 / Drug response score, conc. 2 / Drug response score, conc. 3 / Drug response score, conc. 4: t96h; for Drug response score, conc. 2: conc. 2: Pembr 40 μg/ml (CTCs + CD45+ cells), Docetax 0.2 μg/ml, Gemcit 10 μg/ml, Topo 10 μg/ml, Etop 4 μg/ml, Eribul 10 μg/ml (CTCs); for Drug response score, conc. 3: conc. 3: Pembr 100 μg/ml (CTCs + CD45+ cells), Docetax 2 μg/ml, Gemcit 20 μg/ml, Topo 50 μg/ml, Etop 20 μg/ml, Eribul 20 μg/ml (CTCs); for Drug response score, conc. 4: conc. 4: Pembr 160 μg/ml (CTCs + CD45+ cells), Docetax 10 μg/ml, Gemcit 40 μg/ml, Topo 100 μg/ml, Etop 100 μg/ml, Eribul 40 μg/ml (CTCs); for Drug sensitivity as calculated by the assay (interpretation of Drug Response Scores) / effectiveness on Circulating Tumour Cells under laboratory conditions: renal cancer CTCs; for Drug sensitivity as calculated by the assay (interpretation of Drug Response Scores): Table 23. Details: key to Drug response score, conc. 1 / Drug response score, conc. 2 / Drug response score, conc. 3 / Drug response score, conc. 4: normalized drug response metric per Gupta et al. 2020. The protocol:
(§1) CD45^+ cells and circulating tumour cells (CTCs) were isolated from a blood sample provided by each subject.
(§2) CD45 separation was performed by adding human CD45 microbeads (50 μl/ml blood), incubating for 15 minutes at 4° C. and then processing using an AutoMACS machine. This separates the blood sample into CD45^+ and CD45^−cells in 2 separate falcons. The falcon tubes are then centrifuged at 1200 rpm for 5 minutes.
(§3) The supernatant was removed from the CD45^+falcon tube, and the cells resuspended in DMEM with 2 μl Cell Tox, 2 μl MT and 2 μl MT. 20 μl of the resuspended CD45^+ cells was then plated in each well which will contain an immunotherapy treatment.
(§4) The supernatant was removed from the CD45^−falcon tube, and the CD45^−cells contacted with 100 μl of FcR block and 100 μl of CD326 (EpCAM) MicroBeads, followed by incubation at […] 4° C. for 30 minutes. The CD45^−cells were then processed using an AutoMACS machine to separate the EpCAM positive and negative cells into 2 separate falcon tubes. The EpCAM-cells were discarded. The supernatant was removed from the EpCAM^+ cells, and the cells resuspended in DMEM with 2 μl Cell Tox, 2 μl MT and 2 μl MT. 20 μl of the resuspended pellet was then added to all sample wells excluding a blank. After all wells are added to, a cell count was conducted on the […] to determine the number of circulating tumour cells (CTCs).
(§5) The different cell types were each divided equally into populations, depending on the number of drugs/concentrations to be tested and plated on a cell-culture plate pre-coated with a scaffold of polycaprolactone (PCL) electrospun fibres and incubated at 37° C., 5% CO2, for 5 to (typically 10) minutes to facilitate cell attachment. After attachment, an initial imaging step was carried out using the RealTime-Glo™ MT assay from Promega (Catalogue No. G9711)) and the CellTox™ Green Cytotoxicity Assay (Promega, Catalogue No. G8741), carried out according to manufacturer's instructions. Following this initial imagining, the immunotherapeutic and/or chemotherapeutic agents were added to the cell populations as indicated below. After 10 minutes, the imagining step was repeated. The cell populations were then incubated at 37° C., 5% CO2 for 48 hours. The imaging step was then repeated. The cell populations were then re-dosed with the same immunotherapeutic and/or chemotherapeutic agents as indicated below, and incubated at 37° C., 5% CO2 for a further 48 hours. After this second 48 hour incubation, the imagining step was repeated for a final time.
(§6) At the end of this culture period, dose response scores were calculated using a normalized drug response metric as described in Gupta et al. (Communications Biology volume 3, Article number: 42 (2020), https://doi.org/10.1038/s42003-020-0765-z). The start readout for a given immunotherapeutic or chemotherapeutic agent at a given concentration was the to readout for said immunotherapeutic or chemotherapeutic agent at a specified concentration. The end readout for a given immunotherapeutic or chemotherapeutic agent at a given concentration was the final timepoint reading (t96h) for said immunotherapeutic or chemotherapeutic agent at a specified concentration.
(§7) The positive control start readout for a given drug/concentration was the to readout for the corresponding drug at a specified concentration. The positive control end readout for the corresponding drug at a specified concentration was the final timepoint reading (t96h) for the corresponding blank well.
(§8) The negative control start and end readouts for a given immunotherapeutic or chemotherapeutic agent at a given concentration were the to and final timepoint reading (t96h) respectively for blank cell or blank immuno cell well respectively.
(§9) The sensitivity or resistance of a subject's cancer to a given immunotherapeutic or chemotherapeutic agent was determined based on the calculated drug response score as shown in Table 2. […]

In experiment [2] the test system is Circulating Tumour Cells (CTCs) from a patient with sex cord stromal tumour, ovarian tumour. Nature of the experiment: Drug response score assay on CTCs from blood, Example 4. The following applies: for Drug response score, conc. 1: conc. 1: Cyclo 2.5 μg/ml, Vinc 10 ng/ml, Etop 1 μg/ml, Bini 100 ng/ml, Doxo 10 ng/ml; for Drug response score, conc. 1 / Drug response score, conc. 2 / Drug response score, conc. 3 / Drug response score, conc. 4: CTCs, t96h; for Drug response score, conc. 2: conc. 2: Cyclo 10 μg/ml, Vinc 20 ng/ml, Etop 4 μg/ml, Bini 200 ng/ml, Doxo 30 ng/ml; for Drug response score, conc. 3: conc. 3: Cyclo 40 μg/ml, Vinc 40 ng/ml, Etop 20 μg/ml, Bini 400 ng/ml, Doxo 90 ng/ml; for Drug response score, conc. 4: conc. 4: Cyclo 160 μg/ml, Vinc 80 ng/ml, Etop 100 μg/ml, Bini 800 ng/ml, Doxo 270 ng/ml; for effectiveness on Circulating Tumour Cells (CTCs) under laboratory conditions / Drug sensitivity as calculated by the assay (interpretation of Drug Response Scores): sex cord stromal / ovarian tumour CTCs; for Drug sensitivity as calculated by the assay (interpretation of Drug Response Scores): Table 14. Details: key to Drug response score, conc. 1 / Drug response score, conc. 2 / Drug response score, conc. 3 / Drug response score, conc. 4: normalized drug response metric (Gupta et al. 2020). The protocol: as §1, §2, §4, §5, §6, §7, §8
The sensitivity or resistance of a subject's cancer to a given immunotherapeutic or chemotherapeutic agent was determined based on the calculated drug response score as shown in Table 2.
Blood samples from a patient with sex cord stromal tumour, ovarian tumour (epitheliod neoplasm, stage 3 recurrence after surgery (resection) and previous chemotherapy) were received on 19 Jul. 2021 and tested using a 5 drug panel. […]

Experiment [3] has as its system Circulating Tumour Cells (CTCs) from a patient with lung cancer (adenocarcinoma). Put plainly: Drug response score assay on CTCs (with CD45+ cells for immunotherapy) from blood, Example 5. The following applies: for Drug response score, conc. 1: conc. 1: Niv 20 μg/ml, Gm 2 μg/ml, Vin 20 μg/ml, Gf 100 ng/ml, E 0.75 μg/ml, Afa 20 ng/ml, Metho 0.5 μg/ml, Cz 200 ng/ml, Pal 40 ng/ml (CTCs); for Drug response score, conc. 1 / Drug response score, conc. 2: Pem 20 μg/ml (CTCs + CD45+ cells); for Drug response score, conc. 1 / Drug response score, conc. 2 / Drug response score, conc. 3 / Drug response score, conc. 4: t96h; for Drug response score, conc. 2: conc. 2: Niv 20 μg/ml, Gm 10 μg/ml, Vin 40 μg/ml, Gf 200 ng/ml, E 1.5 μg/ml, Afa 50 ng/ml, Metho 1 μg/ml, Cz 1000 ng/ml, Pal 80 ng/ml (CTCs); for Drug response score, conc. 3: conc. 3: Niv 80 μg/ml, Pem 100 μg/ml (CTCs + CD45+ cells), Gm 20 μg/ml, Vin 80 μg/ml, Gf 600 ng/ml, E 3 μg/ml, Afa 100 ng/ml, Metho 2 μg/ml, Cz 2000 ng/ml, Pal 160 ng/ml (CTCs); for Drug response score, conc. 4: conc. 4: Niv 160 μg/ml, Pem 160 μg/ml (CTCs + CD45+ cells), Gm 40 μg/ml, Vin 200 μg/ml, Gf 1200 ng/ml, E 6 μg/ml, Afa 150 ng/ml, Metho 4 μg/ml, Cz 4000 ng/ml, Pal 320 ng/ml (CTCs); for Drug sensitivity as calculated by the assay (interpretation of Drug Response Scores): Table 17. The protocol: as §1, §2, §3, §4, §5, §6, §7, §8, §9

Take `CC(=O)O[C@@]12CO[C@@H]1C[C@H](O)[C@@]1(C)C(=O)[C@H](O)C3=C(C)[C@@H](OC(=O)[C@H](O)[C@@H](NC(=O)OC(C)(C)C)c4ccccc4)C[C@@](O)([C@@H](OC(=O)c4ccccc4)[C@H]21)C3(C)C` [Docetaxel]: in experiment [1], the “Drug response score, conc. 1” value is given as 0.0585; the “Drug response score, conc. 2” value is −0.1811; the “Drug response score, conc. 3” value is reported as 0.0514; the “Drug response score, conc. 4” value was −0.1468. For the same molecule, the “Drug sensitivity as calculated by the assay (interpretation of Drug Response Scores)” value (shortened to “Drug sensitivity as calculated”) in experiment [1] is recorded as “Sensitive (S+)”.

As to `COc1cc([C@@H]2c3cc4c(cc3[C@@H](O[C@@H]3O[C@@H]5CO[C@@H](C)O[C@H]5[C@H](O)[C@H]3O)[C@H]3COC(=O)[C@H]23)OCO4)cc(OC)c1O` [Etoposide], in experiment [2], the “Drug response score, conc. 1” value came out at 0.79; the “Drug response score, conc. 2” value is reported as 1.06; the “Drug response score, conc. 3” value stood at 1.19; the “Drug response score, conc. 4” value is recorded as 1.35. Further, in experiment [2], the “effectiveness on Circulating Tumour Cells (CTCs) under laboratory conditions” value is “not effective” and the “Drug sensitivity as calculated” value is on record as “Resistant”. For the same molecule, in experiment [1], the “Drug response score, conc. 1” value is −0.2179; the “Drug response score, conc. 2” value is given as −0.1141; the “Drug response score, conc. 3” value is recorded as −0.1357; the “Drug response score, conc. 4” value is given as −0.0050. In addition, in experiment [1], the “effectiveness on Circulating Tumour Cells under laboratory conditions” value is “Sensitive S++” and the “Drug sensitivity as calculated” value is on record as “Sensitive (S++)”.

On to Pembrolizumab, for which, in experiment [1], the “Drug response score, conc. 1” value is on record as −0.0194; the “Drug response score, conc. 2” value is given as 0.1577; the “Drug response score, conc. 3” value turned out to be 0.0468; the “Drug response score, conc. 4” value is listed as −0.0364. In experiment [1], the “effectiveness on Circulating Tumour Cells under laboratory conditions” value was “Sensitive S+” and the “Drug sensitivity as calculated” value is recorded as “Sensitive (S+)”. In experiment [3], the “Drug response score, conc. 1” value was −0.34; the “Drug response score, conc. 2” value was −0.15; the “Drug response score, conc. 3” value was 0.05; the “Drug response score, conc. 4” value amounted to 0.24. The “Drug sensitivity as calculated” value in experiment [3] (lung cancer CTCs) is “S++”.

Take Nivolumab: in experiment [3], the “Drug response score, conc. 1” value is on record as −0.45; the “Drug response score, conc. 2” value is given as −0.80; the “Drug response score, conc. 3” value is reported as −0.12; the “Drug response score, conc. 4” value is −0.22. Besides, in experiment [3] (lung cancer CTCs), the “effectiveness on Circulating Tumour Cells (CTCs) under laboratory conditions” value is given as “more effective than Pembrozulimab” and the “Drug sensitivity as calculated” value is listed as “S++”.

Take `COc1cccc2c1C(=O)c1c(O)c3c(c(O)c1C2=O)C[C@@](O)(C(=O)CO)C[C@@H]3O[C@H]1C[C@H](N)[C@H](O)[C@H](C)O1` [Doxorubicin]: in experiment [2], the “Drug response score, conc. 1” value was found to be 0.68; the “Drug response score, conc. 2” value is reported as 0.93; the “Drug response score, conc. 3” value amounted to 0.54; the “Drug response score, conc. 4” value is given as 0.93. Further, in experiment [2], the “effectiveness on Circulating Tumour Cells (CTCs) under laboratory conditions” value is given as “show effectiveness” and the “Drug sensitivity as calculated” value is given as “Sensitive (S++)”.
